Assay in all cases: Ras-Raf disruption / FRET / MOA assay (BRAF RBD)
Assay type in all cases: biochemical

The target of one test is KRAS G12S (Homo sapiens, UniProt P01116+P62937, G12S). As to conditions: with Cyclophilin A. The source says: (§1) Disruption of […] Ras-binding Domain (BRAF^RBD) Interaction with K-Ras by Compounds of the Invention (also Called a FRET Assay or an MOA Assay)
(§2) Note—The following protocol describes a procedure for monitoring disruption of K-Ras G12C (GMP-PNP) binding to BRAF^RBD by a compound of the invention. This protocol may also be executed substituting other Ras proteins or nucleotides, such as K-Ras G12D and K-Ras G13D.
(§3) The purpose of this biochemical assay was to measure the ability of test compounds to facilitate ternary complex formation between a nucleotide-loaded K-Ras isoform and Cyclophilin A; the resulting ternary complex disrupts binding to a BRAF^RBD construct, inhibiting K-Ras signaling through a RAF effector. Data is reported as IC50 values.
(§4) In assay buffer containing 25 mM HEPES pH 7.3, 0.002% Tween20, 0.1% BSA, 100 mM NaCl and 5 mM MgCl2, tagless Cyclophilin A, His6-K-Ras-GMPPNP, and GST-BRAF^RBD were combined in a 384-well assay plate at final concentrations of 25 μM, 12.5 nM, and 50 nM, respectively. Compound was present in plate wells as a 10-point 3-fold dilution series starting at a final concentration of 30 μM. After incubation at 25° C. for 3 hours, a mixture of anti-His Eu-W1024 and anti-GST allophycocyanin was then added to assay sample wells at final concentrations of 10 nM and 50 nM, respectively, and the reaction incubated for an additional 1.5 hours. […] Compounds that facilitate disruption of a K-Ras:RAF complex were identified as those eliciting a decrease in the TR-FRET ratio relative to DMSO control wells.

The target in a further test is KRAS G13D (Homo sapiens, UniProt P01116+P62937, G13D). The note with it: with Cyclophilin A.
KRAS G13D, sequence (P01116 1-169 isoform P01116-2 G13D limits assumed): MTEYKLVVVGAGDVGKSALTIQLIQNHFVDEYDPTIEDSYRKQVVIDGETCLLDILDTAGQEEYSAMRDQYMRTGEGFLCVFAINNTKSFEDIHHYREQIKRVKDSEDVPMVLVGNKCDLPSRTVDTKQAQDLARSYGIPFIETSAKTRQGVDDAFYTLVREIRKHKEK
KRAS G13D, sequence (P62937 whole entry): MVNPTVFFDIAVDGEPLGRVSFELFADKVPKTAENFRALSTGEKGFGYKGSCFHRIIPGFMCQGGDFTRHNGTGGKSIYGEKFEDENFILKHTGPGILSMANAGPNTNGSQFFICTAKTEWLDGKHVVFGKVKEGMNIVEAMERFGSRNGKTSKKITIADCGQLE
Source text: as §1, §2, §3, §4

A further test has as its target KRAS G12D (Homo sapiens, UniProt P01116+P62937, G12D). The note with it: Ras-Raf disruption, with Cyclophilin A; read-out: KRAS G12D FRET data IC50.
Source text: as §1, §2, §3, §4

The target in the next test is KRAS G12V (Homo sapiens, UniProt P01116+P62937, G12V). The note with it: with Cyclophilin A.
KRAS G12V, sequence (P01116 1-169 isoform P01116-2 G12V limits assumed): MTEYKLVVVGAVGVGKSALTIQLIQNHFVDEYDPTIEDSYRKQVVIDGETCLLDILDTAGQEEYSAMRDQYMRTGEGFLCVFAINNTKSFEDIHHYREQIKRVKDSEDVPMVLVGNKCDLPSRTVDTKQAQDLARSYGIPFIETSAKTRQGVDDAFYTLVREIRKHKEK
KRAS G12V, sequence (P62937 whole entry): as the sequence (P62937 whole entry) above
Source text: as §1, §2, §3, §4

In another test the target is KRAS G13C (Homo sapiens, UniProt P01116+P62937, G13C). As to conditions: Ras-Raf disruption, with Cyclophilin A; read-out: KRAS G13C FRET data IC50.
KRAS G13C, sequence (P01116 1-169 isoform P01116-2 G13C limits assumed): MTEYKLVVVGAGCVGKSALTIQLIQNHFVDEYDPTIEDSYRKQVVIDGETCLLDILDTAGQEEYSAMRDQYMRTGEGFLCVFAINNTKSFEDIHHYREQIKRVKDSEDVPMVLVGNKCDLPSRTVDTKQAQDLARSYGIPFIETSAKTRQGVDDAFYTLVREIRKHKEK
KRAS G13C, sequence (P62937 whole entry): as the sequence (P62937 whole entry) above
Source text: as §1, §2, §3, §4

For a further test, the target named is KRAS WT (Homo sapiens, UniProt P01116+P62937). As to conditions: with Cyclophilin A.
KRAS WT, sequence (P01116 1-169 isoform P01116-2 limits assumed): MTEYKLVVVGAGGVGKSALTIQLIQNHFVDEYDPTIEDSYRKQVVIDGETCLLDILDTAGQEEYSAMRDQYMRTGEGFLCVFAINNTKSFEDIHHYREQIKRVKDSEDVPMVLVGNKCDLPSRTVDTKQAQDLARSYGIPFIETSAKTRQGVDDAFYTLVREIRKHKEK
KRAS WT, sequence (P62937 whole entry): as the sequence (P62937 whole entry) above
Source text: as §1, §2, §3, §4

The target in a further test is KRAS G12C (Homo sapiens, UniProt P01116+P62937, G12C). The note with it: Ras-Raf disruption, with Cyclophilin A; read-out: KRAS G12C FRET data IC50.
KRAS G12C, sequence (P01116 1-169 isoform P01116-2 G12C limits assumed): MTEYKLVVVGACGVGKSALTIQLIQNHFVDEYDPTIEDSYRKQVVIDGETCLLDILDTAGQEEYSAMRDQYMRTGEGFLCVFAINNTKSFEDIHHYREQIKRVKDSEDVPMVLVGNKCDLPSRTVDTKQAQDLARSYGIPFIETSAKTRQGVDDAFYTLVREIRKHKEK
KRAS G12C, sequence (P62937 whole entry): as the sequence (P62937 whole entry) above
Source text: as §1, §2, §3, §4
The purpose of this biochemical assay is to measure the ability of test compounds to facilitate ternary complex formation between a nucleotide-loaded Ras isoform and cyclophilin A; the resulting ternary complex disrupts binding to a BRAF^RBD construct, inhibiting Ras signaling through a RAF effector.
In assay buffer containing 25 mM HEPES pH 7.3, 0.002% Tween20, 0.1% BSA, 100 mM NaCl and 5 mM MgCl2, tagless Cyclophilin A, His6-K-Ras-GMPPNP (or other Ras variant), and GST-BRAF^RBD are combined in a 384-well assay plate at final concentrations of 25 μM, 12.5 nM and 50 nM, respectively. Compound is present in plate wells as a 10-point 3-fold dilution series starting at a final concentration of 30 μM. After incubation at 25° C. for 3 hours, a mixture of Anti-His Eu-W1024 and anti-GST allophycocyanin is then added to assay sample wells at final concentrations of 10 nM and 50 nM, respectively, and the reaction incubated for an additional 1.5 hours. […] Compounds that facilitate disruption of a Ras:RAF complex are identified as those eliciting a decrease in the TR-FRET ratio relative to DMSO control wells.

Another test concerns the target NRAS G12C (Homo sapiens, UniProt P01111+P62937, G12C). The note with it: NRAS G12C; read-out: NRAS G12C FRET data IC50.
Source text: as §1, §2, §3, §4

Where [1] appears, read: Ras-Raf disruption, read-out: KRAS G12S FRET data IC50.
The mark [2] stands for this setting: Ras-Raf disruption, read-out: KRAS G13D FRET data IC50.
Where [3] appears, read: Ras-Raf disruption, read-out: KRAS G12V FRET data IC50.
Where [4] appears, read: Ras-Raf disruption, read-out: KRAS WT FRET data IC50.

Read-outs that look alike come from different tables or passages of the source.

KRAS G12S, sequence (P01116 1-169 isoform P01116-2 G12S limits assumed): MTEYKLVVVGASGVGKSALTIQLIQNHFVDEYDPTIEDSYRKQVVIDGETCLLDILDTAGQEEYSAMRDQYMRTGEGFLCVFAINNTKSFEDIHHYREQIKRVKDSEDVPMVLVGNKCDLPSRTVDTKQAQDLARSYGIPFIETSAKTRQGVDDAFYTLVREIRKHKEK
KRAS G12S, sequence (P62937 whole entry, the tested form may be a part): as the sequence (P62937 whole entry) above
NRAS G12C, sequence (P01111 whole entry G12C): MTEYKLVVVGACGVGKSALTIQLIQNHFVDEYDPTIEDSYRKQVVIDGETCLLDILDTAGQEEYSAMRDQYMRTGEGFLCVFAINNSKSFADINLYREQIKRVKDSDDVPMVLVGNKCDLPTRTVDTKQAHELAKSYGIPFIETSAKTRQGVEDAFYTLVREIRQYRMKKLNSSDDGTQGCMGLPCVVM
NRAS G12C, sequence (P62937 whole entry): as the sequence (P62937 whole entry) above
KRAS G12D, sequence (P01116 1-169 isoform P01116-2 G12D limits assumed): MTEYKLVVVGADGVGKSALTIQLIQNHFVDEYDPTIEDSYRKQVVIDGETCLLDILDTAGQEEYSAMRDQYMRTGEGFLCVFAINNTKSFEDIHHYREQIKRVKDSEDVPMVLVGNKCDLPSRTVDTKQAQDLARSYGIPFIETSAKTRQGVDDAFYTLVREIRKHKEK
KRAS G12D, sequence (P62937 whole entry): as the sequence (P62937 whole entry) above

As for `CCn1c(-c2cnccc2COC)c2c3cc(ccc31)-c1cccc(c1)C[C@H](NC(=O)[C@H](C(C)C)N(C)C(=O)CCN=C=NCCCSC)C(=O)N1CCC[C@H](N1)C(=O)OCC(C)(C)C2` [16 A and B], the IC50 on KRAS G12S (setting [1]) and on KRAS G13D (setting [2]) was more than 10 µM each time.
For the molecule `CCn1c(-c2cnccc2COC)c2c3cc(ccc31)-c1cccc(c1)C[C@H](NC(=O)[C@H](C(C)C)N(C)C(=O)CCN=C=NCCCN1CCOCC1)C(=O)N1CCC[C@H](N1)C(=O)OCC(C)(C)C2` [17 A and B], the IC50 on KRAS G12D was 1 to 10 µM; at KRAS G12S (setting [1]), more than 10 µM; at KRAS G12V (setting [3]), more than 10 µM; at KRAS G13C it was 1 to 10 µM; at KRAS WT (setting [4]), more than 10 µM; at KRAS G12C, 0.01 to 0.1 µM.
Regarding `CCn1c(-c2cnccc2COC)c2c3cc(ccc31)-c1cccc(c1)C[C@H](NC(=O)[C@H](C(C)C)N(C)C(=O)CCN=C=NCc1ccc(OC)cc1)C(=O)N1CCC[C@H](N1)C(=O)OCC(C)(C)C2` [18 A and B], the IC50 on KRAS G12S (setting [1]), on KRAS G12V (setting [3]) and at KRAS WT (setting [4]) was more than 10 µM in each case.
For `CCn1c(-c2cnccc2COC)c2c3cc(ccc31)-c1cccc(c1)C[C@H](NC(=O)[C@H](C(C)C)N(C)C(=O)CCN=C=NCc1ccccc1)C(=O)N1CCC[C@H](N1)C(=O)OCC(C)(C)C2` [19 A and B], the IC50 on KRAS G12S (setting [1]), at KRAS G12V (setting [3]) and at KRAS WT (setting [4]) was more than 10 µM throughout.
As for `CCn1c(-c2cnccc2COC)c2c3cc(ccc31)-c1cccc(c1)C[C@H](NC(=O)[C@H](C(C)C)N(C)C(=O)CCN=C=Nc1ccccc1OC)C(=O)N1CCC[C@H](N1)C(=O)OCC(C)(C)C2` [20 A and B], the IC50 on KRAS G12D, at KRAS G12S (setting [1]), at KRAS G12V (setting [3]), on KRAS G13D (setting [2]) and on KRAS WT (setting [4]) was more than 10 µM in each case.
For `CCn1c(-c2cnccc2COC)c2c3cc(ccc31)-c1cc(O)cc(c1)C[C@H](NC(=O)[C@H](C(C)C)N(C)C(=O)CN(C)C(=O)C1CN1)C(=O)N1CCC[C@H](N1)C(=O)OCC(C)(C)C2` (some centres unmarked) [32 A and B], the IC50 was more than 10 µM against KRAS G12S (KRAS G12S FRET data IC50, Ras-Raf disruption); more than 10 µM at KRAS G12V (KRAS G12V FRET data IC50, Ras-Raf disruption); 1 to 10 µM on KRAS G13D (KRAS G13D FRET data IC50, Ras-Raf disruption); more than 10 µM against KRAS WT (KRAS WT FRET data IC50, Ras-Raf disruption).
In the case of `CCn1c(-c2cnccc2COC)c2c3cc(ccc31)-c1cc(O)cc(c1)C[C@H](NC(=O)[C@H](C(C)C)N(C)C(=O)c1ccc(NC(=O)[C@H]3CN3)cn1)C(=O)N1CCC[C@H](N1)C(=O)OCC(C)(C)C2` [47 A and B], the IC50 on KRAS G12D lay in the range of 1 to 10 µM; at KRAS G13C it was 0.01 to 0.1 µM.
Consider `CCn1c(-c2cnccc2COC)c2c3cc(ccc31)-c1cccc(c1)C[C@H](NC(=O)[C@H](C(C)C)N(C)C(=O)CCN=C=NCc1ccc(OC)cc1OC)C(=O)N1CCC[C@H](N1)C(=O)OCC(C)(C)C2` [61 A and B], for which the IC50 at KRAS G12D, on KRAS G12S (setting [1]), at KRAS G12V (setting [3]), at KRAS G13C, at KRAS G13D (setting [2]) and at KRAS WT (setting [4]) was more than 10 µM in each case.
For `CCn1c(-c2cnccc2COC)c2c3cc(ccc31)-c1cccc(c1)C[C@H](NC(=O)[C@H](C(C)C)N(C)C(=O)CC1(N=C=Nc3ccc(OC)cc3)CC1)C(=O)N1CCC[C@H](N1)C(=O)OCC(C)(C)C2` [65 A and B], the IC50 on KRAS G12D, at KRAS G12S (setting [1]), on KRAS G12V (setting [3]), on KRAS G13D (setting [2]), at KRAS WT (setting [4]) and on NRAS G12C was more than 10 µM each time.
For the molecule `CCn1c(-c2cnccc2COC)c2c3cc(ccc31)-c1cccc(c1)C[C@H](NC(=O)[C@H](C(C)C)N(C)C(=O)CCN=C=NCCc1cccs1)C(=O)N1CCC[C@H](N1)C(=O)OCC(C)(C)C2` [68 A and B], the IC50 at KRAS G12S (setting [1]), on KRAS G12V (setting [3]), on KRAS G13D (setting [2]) and at KRAS WT (setting [4]) was more than 10 µM throughout.
Take `CCn1c(-c2cnccc2COC)c2c3cc(ccc31)-c1cccc(c1)C[C@H](NC(=O)[C@H](C(C)C)N(C)C(=O)CCCN=C=NCCCOC)C(=O)N1CCC[C@H](N1)C(=O)OCC(C)(C)C2` [69 A and B]: the IC50 at KRAS G12V (setting [3]) lay within 1 to 10 µM.
Consider `CCn1c(-c2cnccc2COC)c2c3cc(ccc31)-c1cccc(c1)C[C@H](NC(=O)[C@H](C(C)C)N(C)C(=O)[C@@H]1CCC(N=C=Nc3ccc(OC)cc3)C1)C(=O)N1CCC[C@H](N1)C(=O)OCC(C)(C)C2` (some centres unmarked) [70 A and B], for which the half-inhibitory concentration (IC50) at KRAS G12S (setting [1]), at KRAS G12V (setting [3]), on KRAS G13D (setting [2]) and at KRAS WT (setting [4]) was more than 10 µM throughout.
Regarding `CCn1c(-c2cnccc2COC)c2c3cc(ccc31)-c1cccc(c1)C[C@H](NC(=O)[C@H](C(C)C)N(C)C(=O)C1CCC(N=C=Nc3ccc(OC)cc3)C1)C(=O)N1CCC[C@H](N1)C(=O)OCC(C)(C)C2` (some centres unmarked) [71 A and B], the concentration for half-maximal inhibition (IC50) at KRAS G12D, at KRAS G12S (setting [1]), on KRAS G12V (setting [3]), on KRAS G13C, at KRAS G13D (setting [2]) and on KRAS WT (setting [4]) was more than 10 µM in each case.
For the molecule `CCn1c(-c2cnccc2COC)c2c3cc(ccc31)-c1cccc(c1)C[C@H](NC(=O)[C@H](C(C)C)N(C)C(=O)CCN=C=NC1(COC)CC1)C(=O)N1CCC[C@H](N1)C(=O)OCC(C)(C)C2` [72 A and B], the IC50 at KRAS G12S (setting [1]) is more than 10 µM; on KRAS WT (setting [4]), more than 10 µM; on NRAS G12C, 0.1 to 1 µM.
With `CCn1c(-c2cnccc2COC)c2c3cc(ccc31)-c1cccc(c1)C[C@H](NC(=O)[C@H](C(C)C)N(C)C(=O)CCN=C=NC(C)(C)C)C(=O)N1CCC[C@H](N1)C(=O)OCC(C)(C)C2` [79 A and B], the half-inhibitory concentration (IC50) at KRAS G12D, at KRAS G12S (setting [1]) and on KRAS G13D (setting [2]) was more than 10 µM in each case.
Regarding `CCn1c(-c2cnccc2COC)c2c3cc(ccc31)-c1cccc(c1)C[C@H](NC(=O)[C@H](C(C)C)N(C)C(=O)CCN=C=NCc1ccccc1C)C(=O)N1CCC[C@H](N1)C(=O)OCC(C)(C)C2` [82 A and B], the IC50 on KRAS G12S (setting [1]), on KRAS G12V (setting [3]), on KRAS G13C, on KRAS G13D (setting [2]) and on KRAS WT (setting [4]) was more than 10 µM each time.
As to `CCn1c(-c2cccnc2[C@H](C)OC)c2c3cc(ccc31)-c1cc(O)cc(c1)C[C@H](NC(=O)[C@H](C(C)C)N(C)C(=O)N1CCN(C(=O)[C@@H]3CN3)C(=O)C1)C(=O)N1CCC[C@H](N1)C(=O)OCC(C)(C)C2` [Example 197], the IC50 at KRAS G12S (setting [1]), at KRAS G12V (setting [3]), at KRAS WT (setting [4]), on NRAS G12C and on KRAS G12C was 0.01 to 0.1 µM in each case.

Broadly, the IC50 is the point on the concentration scale where inhibition reaches its midpoint.
